Measured values: ChEMBL document CHEMBL1131422, “N-(2-Benzoylphenyl)-L-tyrosine PPARgamma agonists. 1. Discovery of a novel series of potent antihyperglycemic and antihyperlipidemic agents” (J Med Chem, 1998)
Active and inactive are the calls of the source. No cut-off for these calls is given here.

Assays:
[1] = biological target: T1, Peroxisome proliferator-activated receptor gamma (Homo sapiens, UniProt P37231)
T1 sequence (P37231 whole entry): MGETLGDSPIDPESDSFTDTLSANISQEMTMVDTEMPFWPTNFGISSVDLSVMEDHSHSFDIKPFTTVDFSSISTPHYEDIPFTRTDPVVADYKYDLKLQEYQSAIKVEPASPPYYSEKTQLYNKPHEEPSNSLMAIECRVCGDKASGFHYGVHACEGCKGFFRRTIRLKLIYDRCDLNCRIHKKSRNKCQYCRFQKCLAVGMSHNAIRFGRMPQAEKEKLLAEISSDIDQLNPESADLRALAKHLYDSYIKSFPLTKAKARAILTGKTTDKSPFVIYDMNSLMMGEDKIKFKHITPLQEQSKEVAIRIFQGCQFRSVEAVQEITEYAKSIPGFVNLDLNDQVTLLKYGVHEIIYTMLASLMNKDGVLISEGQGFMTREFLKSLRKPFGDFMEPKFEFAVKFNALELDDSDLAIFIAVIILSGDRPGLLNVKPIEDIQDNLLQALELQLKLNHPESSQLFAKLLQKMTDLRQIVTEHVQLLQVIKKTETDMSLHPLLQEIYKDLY
Description: Activation of peroxisome proliferator activated receptor gamma measured by induction of 50% of maximum alkaline phosphatase activity, transfection assay in CV-1 cells

[2] = biological target: T1, Peroxisome proliferator-activated receptor gamma; remark: listed apart in the source
Description: In vitro binding to peroxisome proliferator activated receptor gamma (PPAR gamma) using [3H]-BRL 49653 as radioligand in scintillation proximity assay (SPA)

[3] = biological target: T2, Peroxisome proliferator-activated receptor gamma (Homo sapiens) (UniProt P37231); assay: Compound was tested functionally in vitro for inducing 50% of the maximum alkaline phosphatase activity (Transactivation) against Peroxisome proliferator activated receptor gamma using transfection assay in CV-1 cells; IA = Inactive at 10e-4 M; assay type: functional, cell-based
T2 sequence (whole entry): T1 sequence (P37231 whole entry)

Compound	EC50 [1] [nM]	Ki [2] [nM]	Log EC50 [3]
CC(/C=C(\O)c1ccccc1)=N\[C@@H](Cc1ccc(OCc2ccccc2)cc1)C(N)=O	490	1320	–
COC(=O)[C@H](Cc1ccc(OCc2ccccc2)cc1)Nc1ccccc1C(=O)OCc1ccccc1	–	> 3160	inactive
O=C(c1ccccc1)c1cccc(N[C@@H](Cc2ccc(OCc3ccccc3)cc2)C(=O)O)c1	–	> 3160	inactive
COC(=O)[C@H](Cc1ccc(OCc2ccccc2)cc1)/N=C(\C)C1=C(O)c2ccccc2CC1	–	> 3160	inactive
CC1(COc2ccc(C[C@H](Nc3ccccc3C(=O)c3ccccc3)C(=O)O)cc2)CCCCC1	617	51.3	–
COC(=O)[C@H](Cc1ccc(OCc2ccccc2)cc1)/N=C(C)/C=C(\O)c1ccccc1	692	759	–
Cc1oc(-c2ccccc2)nc1CCOc1ccc(CC2SC(=O)NC2=O)cc1 (stereo unspecified)	3.16	4.27	–
O=C(O)[C@H](Cc1ccc(OCc2ccccc2)cc1)/N=C1\CCCC\C1=C(\O)c1ccccc1	10200	794	–
N[C@@H](Cc1ccc(OCc2ccccc2)cc1)C(=O)O	2510	> 3160	–
CC(/C=C(\O)c1ccccc1)=N\[C@@H](Cc1ccc(OCc2ccccc2)cc1)C(=O)O (stereo in doubt; 2)	229	11.7	–
COC(=O)[C@H](Cc1ccc(OCc2ccccc2)cc1)Nc1ccccc1C(=O)Nc1ccccc1	–	> 3160	inactive
C/C(O)=C/C(C)=N/[C@@H](Cc1ccc(OCc2ccccc2)cc1)C(=O)O	–	1950	inactive
O=C(c1ccccc1)c1ccc(N[C@@H](Cc2ccc(OCc3ccccc3)cc2)C(=O)O)cc1	–	1260	inactive
Cc1c(C)c2c(c(C)c1O)CCC(C)(COc1ccc(C[C@H](Nc3ccccc3C(=O)c3ccccc3)C(=O)O)cc1)O2 (stereo partly specified)	9.12	5.25	–
CC(/C=C(\O)c1ccccc1)=N\[C@@H](Cc1ccc(OCc2ccccc2)cc1)C(=O)O (stereo in doubt)	21900	> 3160	–

Results, then the compound that gave them:

EC50 [1] [nM]	Ki [2] [nM]	Log EC50 [3]	Compound
28.8	3.31	–	CN(CCOc1ccc(CC(Nc2ccccc2C(=O)Cc2ccccc2)C(=O)O)cc1)c1nc2ccccc2o1 (stereo unspecified)
851	162	–	CN(CCOc1ccc(CC(Nc2ccccc2/C(=N/N)c2ccccc2)C(=O)O)cc1)c1ccccn1 (stereo unspecified)
1380	33.1	–	CN(CCOc1ccc(CC(Sc2ccccc2C(=O)c2ccccc2)C(=O)O)cc1)c1nc2ccccc2o1 (stereo unspecified)
–	> 3160	inactive	O=C(O)[C@H](Cc1ccc(OCc2ccccc2)cc1)Nc1ccccc1Cc1ccccc1
16600	162	–	O=C(c1ccccc1)c1ccccc1N[C@@H](Cc1ccc(OCc2ccccc2)cc1)C(=O)O
933	32.4	–	CN(CCOc1ccc(CC(Oc2ccccc2C(=O)c2ccccc2)C(=O)O)cc1)c1nc2ccccc2o1 (stereo unspecified)
1820	123	–	CN(CCOc1ccc(CC(Nc2ccccc2S(=O)(=O)c2ccccc2)C(=O)O)cc1)c1nc2ccccc2o1 (stereo unspecified)
50.1	6.46	–	CCc1ccc(CCOc2ccc(C[C@H](Nc3ccccc3C(=O)c3ccccc3)C(=O)O)cc2)nc1
490	85.1	–	CN(CCOc1ccc(CC(Nc2cccc3c2C(=O)c2ccccc2-3)C(=O)O)cc1)c1nc2ccccc2o1 (stereo unspecified)
447	–	–	CN(CCOc1ccc(CC(Nc2ccccc2C(O)c2ccccc2)C(=O)O)cc1)c1ccccn1 (stereo unspecified)
107	3.72	–	CN(CCOc1ccc(CC(Nc2ccccc2Oc2ccccc2)C(=O)O)cc1)c1nc2ccccc2o1 (stereo unspecified)
